Laboratory results taken from patent publication US4211551A, “Herbicide” (Siegfried AG, priority 1976, dated 1980).

Legend:
[1] = tested on: Wild oat (Avena fatua); assay: Green-house test, control of Wild oat (EWRC-scale); assay type: in vivo; conditions: scale 1 = complete absence of plant damage, 9 = complete damage
Description: (§1) wherein AK is the number of the individual plants of the specific weed in the untreated zero-control area and AB is the corresponding number of weed plants in the treated area. The results of these tests for three different dosage amounts with the inventive CBPA (column A) and the prior art Methabenzthiazuron are summarized in Table I below. This table further includes compatibility data of three types of crop plants for the tested composition. Crop compatibility was rated according to the evaluation scale of the "European Weed Research Council (EWRC)." In this scale, numeral 1 indicates complete absence of plant damage symptoms while numeral 9 indicates complete damage. For practical purposes, the crop tolerance limit is assumed to be between numerals 4 and 5.
Green-house tests were made to determine the activity of CBPA in the control of Wild oat (Avena fatua), a very noxious weed in many crop cultures. The test plants were seeded and cultured in pots at temperatures of 20° to 21° C. Effectivity tests were made when the plants had reached the two-leave to four-leave state, i.e. when the total plant height was about 10 to 12 cm. The amount of water applied in addition to the composition was equivalent to 1000 liters per hectare in each case. As a comparative substance (formulated in the same manner as the inventive CBPA or its salts) a recently developed standard herbicide, Diclofop-methyl, (BSI-approved common name) was used.
The effects were rated again by the EWRC-scale mentioned above and the results are given in Table II below indicating the results at varying amounts of the applied substance (in kilograms of active substance per hectare) after 7, 14 and 21 days subsequent to the treatment.

[2] = tested on: Camomile (Matricaria chamomilla); assay: Field test, herbicidal % effect on weeds (logarithmic sprayer); assay type: in vivo; conditions: four weeks
Description: (§2) The composition prepared according to example 6 was used in field tests and compared with a composition of the type set forth in example 6 with the modification that the CBPA was replaced by the same amount of a conventional herbicide, i.e. Methabenzthiazuron (BSI approved common name). A "logarithmic" spraying apparatus of the type known in herbicide evaluation was used for these tests. This apparatus comprises an elongated spraying device connected with a reservoir for the composition to be tested, and a water reservoir. Separate test areas were sprayed with this apparatus and each composition was applied as an aqueous suspension. […] The apparatus was operated such that the initial concentration of the active ingredient was equivalent to 10 kg/ha and decreased as follows:
(§3) The amount of water applied by the apparatus remained constant and was equivalent to 666 liters per hectare. The tests were made in early August of 1976. The test areas were seeded with crop plant on a substantially weed-free soil, a middle-heavy sandy clay. One test area (zero-control) was seeded but not sprayed. Four weeks thereafter, the treated areas were inspected to determine the number of individual weed plants per square meter for five significant types of weeds and to calculate the percent effect according to the formula
as §1

[3] = tested on: Lambs Quarters (Chenopodium album); assay: as above; assay type: in vivo; conditions: four weeks
Description: as §2, §3, §1

[4] = tested on: Shepherds Purse (Capsella bursa-pastoris); assay: as above; assay type: in vivo; conditions: four weeks
Description: as §2, §3, §1

[5] = tested on: Rough Henbit (Lamium purpureum); assay: as above; assay type: in vivo; conditions: four weeks
Description: as §2, §3, §1

[6] = tested on: Chickweed (Stellaria media); assay: as above; assay type: in vivo; conditions: four weeks
Description: as §2, §3, §1

[7] = tested on: Barley; assay: Field test, crop compatibility (EWRC-evaluation); assay type: in vivo; conditions: scale 1 = complete absence of plant damage symptoms, 9 = complete damage
Description: as §2, §3, §1

[8] = tested on: Green beans; assay: Field test, crop compatibility (EWRC-evaluation); assay type: in vivo
Description: as §2, §3, §1

[9] = tested on: Corn (Zea mais); assay: Field test, crop compatibility (EWRC-evaluation); assay type: in vivo
Description: as §2, §3, §1

[10] = tested on: five significant types of weeds; assay: Field test, average weed effect over five weeds; assay type: in vivo; conditions: four weeks
Description: as §2, §3, §1

[11] = tested on: weeds of the Graminae family; assay: Herbicidal effectiveness against Graminae weeds; assay type: in vivo; conditions: such as Barnyard grass, Annual meadow-grass, Wild Oat
[12] = tested on: mice; conditions: cited from earlier work
[13] = tested on: weed infested crop area; assay: Treatment of weed infested crop area in the two to four leave state; assay type: in vivo
[14] = tested on: monocotyledonous and dicotyledonous weeds; assay: Herbicidal effectiveness against monocotyledonous and dicotyledonous weeds; assay type: in vivo; conditions: pre-emergence and post-emergence treatment
[15] = tested on: Annual meadow grass (Poa annua); assay: Further field tests, control of Graminae weeds; assay type: in vivo
Description: as §2, §3

[16] = tested on: Common wild oat (Avena fatua); assay: Further field tests, control of Graminae weeds; assay type: in vivo
Description: as §2, §3

[17] = tested on: Barnyard Grass (Echinochloa crus-galli); assay: Further field tests, control of Graminae weeds; assay type: in vivo
Description: as §2, §3

SMILES: COC(=O)C(C)Oc1ccc(Oc2ccc(Cl)cc2Cl)cc1 (centres unmarked) [Diclofop-methyl, reference compound]
- Effect on Wild oat rated by EWRC-scale ([1]; 1 kg/ha, 7 days): 2
- Effect on Wild oat rated by EWRC-scale ([1]; 1 kg/ha, 14 days): 4
- Effect on Wild oat rated by EWRC-scale ([1]; 1 kg/ha, 21 days): 4
- Effect on Wild oat rated by EWRC-scale ([1]; 2 kg/ha, 7 days): 3
- Effect on Wild oat rated by EWRC-scale ([1]; 2 kg/ha, 14 days): 5
- Effect on Wild oat rated by EWRC-scale ([1]; 2 kg/ha, 21 days): 5
- Effect on Wild oat rated by EWRC-scale ([1]; 4 kg/ha, 7 days): 5
- Effect on Wild oat rated by EWRC-scale ([1]; 4 kg/ha, 14 days): 7
- Effect on Wild oat rated by EWRC-scale ([1]; 4 kg/ha, 21 days): 8
- Effect on Wild oat rated by EWRC-scale ([1]; 8 kg/ha, 7 days): 5
- Effect on Wild oat rated by EWRC-scale ([1]; 8 kg/ha, 14 days): 6
- Effect on Wild oat rated by EWRC-scale ([1]; 8 kg/ha, 21 days): 8

SMILES: CNC(=O)N(C)c1nc2ccccc2s1 [Methabenzthiazuron, reference compound]
- Herbicidal % effect on specific weeds ([2]; 2.65 kg/ha a.i.): 88%
- Herbicidal % effect on specific weeds ([2]; 4.3 kg/ha a.i.): 100%
- Herbicidal % effect on specific weeds ([2]; 6.7 kg/ha a.i.): 100%
- Herbicidal % effect on specific weeds ([3]; 2.65 kg/ha a.i.): 87%
- Herbicidal % effect on specific weeds ([3]; 4.3 kg/ha a.i.): 94%
- Herbicidal % effect on specific weeds ([3]; 6.7 kg/ha a.i.): 98%
- Herbicidal % effect on specific weeds ([4]; 2.65 kg/ha a.i.): 95%
- Herbicidal % effect on specific weeds ([4]; 4.3 kg/ha a.i.): 99%
- Herbicidal % effect on specific weeds ([4]; 6.7 kg/ha a.i.): 100%
- Herbicidal % effect on specific weeds ([5]; 2.65 kg/ha a.i.): 0%
- Herbicidal % effect on specific weeds ([5]; 4.3 kg/ha a.i.): 73%
- Herbicidal % effect on specific weeds ([5]; 6.7 kg/ha a.i.): 80%
- Herbicidal % effect on specific weeds ([6]; 2.65 kg/ha a.i.): 100%
- Herbicidal % effect on specific weeds ([6]; 4.3 kg/ha a.i.): 100%
- Herbicidal % effect on specific weeds ([6]; 6.7 kg/ha a.i.): 100%
- Crop compatibility (EWRC-evaluation) ([7]; 2.65 kg/ha a.i., tolerance limit between 4 and 5): 1
- Crop compatibility (EWRC-evaluation) ([7]; 4.3 kg/ha a.i.): 1
- Crop compatibility (EWRC-evaluation) ([7]; 6.7 kg/ha a.i., tolerance limit between 4 and 5): 5
- Crop compatibility (EWRC-evaluation) ([8]; Green beans, 2.65 kg/ha a.i., scale 1 = complete absence of plant damage symptoms, 9 = complete damage, tolerance limit between 4 and 5): 1
- Crop compatibility (EWRC-evaluation) ([8]; Green beans, 4.3 kg/ha a.i., scale 1 = complete absence of plant damage symptoms, 9 = complete damage): 1
- Crop compatibility (EWRC-evaluation) ([8]; Green beans, 6.7 kg/ha a.i., scale 1 = complete absence of plant damage symptoms, 9 = complete damage): 1
- Crop compatibility (EWRC-evaluation) ([9]; Corn, 2.65 kg/ha a.i., scale 1 = complete absence of plant damage symptoms, 9 = complete damage, tolerance limit between 4 and 5): 1
- Crop compatibility (EWRC-evaluation) ([9]; Corn, 4.3 kg/ha a.i., scale 1 = complete absence of plant damage symptoms, 9 = complete damage): 1
- Crop compatibility (EWRC-evaluation) ([9]; Corn, 6.7 kg/ha a.i., scale 1 = complete absence of plant damage symptoms, 9 = complete damage): 1
- Average weed effect (%) ([10]; 2.65 kg/ha a.i.): 74%
- Average weed effect (%) ([10]; 4.3 kg/ha a.i.): 91.5%
- Average weed effect (%) ([10]; 6.7 kg/ha a.i.): 95.6%

SMILES: O=C(O)COc1ccc(Cc2ccc(Cl)cc2)cc1 [CBPA, 4-(4'-chlorobenzyl)-phenoxy acetic acid]
- Effectiveness when controlling weeds of the Graminae family [11]: particularly beneficial and high degree of effectiveness
- LD50 (acute oral toxicity) [12]: 2700 mg per kilogram of body weight
- Contact effect ([13]; two to four leave state, in addition to residual effectiveness): remarkable contact effect
- Result of treatment in two to four leave state ([13]; weeds and crops in two to four leave state): positive results
- Herbicidal effectiveness against monocotyledonous and dicotyledonous weeds [14]: remarkable degree of effectiveness
- Herbicidal effectiveness against monocotyledonous and dicotyledonous weeds ([14]; listed as 4-(4'-chlorobenzyl)-phenoxy acetic acid): surprisingly high degree of herbicidal effectiveness
- Herbicidal % effect on specific weeds ([2]; 2.65 kg/ha a.i.): 70%
- Herbicidal % effect on specific weeds ([2]; 4.3 kg/ha a.i.): 90%
- Herbicidal % effect on specific weeds ([2]; 6.7 kg/ha a.i.): 100%
- Herbicidal % effect on specific weeds ([3]; 2.65 kg/ha a.i.): 83%
- Herbicidal % effect on specific weeds ([3]; 4.3 kg/ha a.i.): 100%
- Herbicidal % effect on specific weeds ([3]; 6.7 kg/ha a.i.): 100%
- Herbicidal % effect on specific weeds ([4]; 2.65 kg/ha a.i.): 84%
- Herbicidal % effect on specific weeds ([4]; 4.3 kg/ha a.i.): 96%
- Herbicidal % effect on specific weeds ([4]; 6.7 kg/ha a.i.): 100%
- Herbicidal % effect on specific weeds ([5]; 2.65 kg/ha a.i.): 89%
- Herbicidal % effect on specific weeds ([5]; 4.3 kg/ha a.i.): 91%
- Herbicidal % effect on specific weeds ([5]; 6.7 kg/ha a.i.): 97%
- Herbicidal % effect on specific weeds ([6]; 2.65 kg/ha a.i.): 83%
- Herbicidal % effect on specific weeds ([6]; 4.3 kg/ha a.i.): 100%
- Herbicidal % effect on specific weeds ([6]; 6.7 kg/ha a.i.): 100%
- Crop compatibility (EWRC-evaluation) ([8]; in vivo): 1
- Crop compatibility (EWRC-evaluation) ([9]; in vivo): 1
- Effect on Wild oat rated by EWRC-scale ([1]; 1 kg/ha, 7 days): 3
- Effect on Wild oat rated by EWRC-scale ([1]; 1 kg/ha, 14 days): 4
- Effect on Wild oat rated by EWRC-scale ([1]; 1 kg/ha, 21 days): 4
- Effect on Wild oat rated by EWRC-scale ([1]; 2 kg/ha, 7 days): 4
- Effect on Wild oat rated by EWRC-scale ([1]; 2 kg/ha, 14 days): 6
- Effect on Wild oat rated by EWRC-scale ([1]; 2 kg/ha, 21 days): 8
- Effect on Wild oat rated by EWRC-scale ([1]; 4 kg/ha, 7 days): 5
- Effect on Wild oat rated by EWRC-scale ([1]; 4 kg/ha, 14 days): 9
- Effect on Wild oat rated by EWRC-scale ([1]; 4 kg/ha, 21 days): 9
- Effect on Wild oat rated by EWRC-scale ([1]; 8 kg/ha, 7 days): 5
- Effect on Wild oat rated by EWRC-scale ([1]; 8 kg/ha, 14 days): 9
- Effect on Wild oat rated by EWRC-scale ([1]; 8 kg/ha, 21 days): 9
- Effectiveness for control of Graminae weeds [15]: remarkable effectiveness
- Effectiveness for control of Graminae weeds [16]: remarkable effectiveness
- Effectiveness for control of Graminae weeds [17]: remarkable effectiveness
- Average weed effect (%) ([10]; 2.65 kg/ha a.i.): 81.8%
- Average weed effect (%) ([10]; 4.3 kg/ha a.i.): 95.4%
- Average weed effect (%) ([10]; 6.7 kg/ha a.i.): 99.4%
